Experiments:
[1] = test system: PAR1 null cells adenovirally-transduced with the FGF1R136K mutant; test: Immunoblot analysis of FGF1 release in PAR1 null cells; type: cell-based, mouse; conditions: 10 μg/ml α-thrombin
[2] = test system: FGF1R136K NIH 3T3 cell transfectants; test: Thrombin stimulation and immunoblot analysis of FGF1 release; type: cell-based, murine
Experimental: FGF1R136K NIH 3T3 cell transfectants or adenovirally-transduced NIH 3T3 cells were washed with DMEM containing 5 units/ml of heparin (Sigma) and stimulated with either 10 μg/ml α-thrombin (a gift from Dr. J. Fenton) or 5 μM TRAP (Sigma) at 37° C. for different periods of time. Control cells were incubated in the absence of thrombin for the same time period. Conditioned media were collected at each time period, filtered, and concentrated as previously described (Jackson et al., 1992, Proc. Natl. Acad. Sci. U.S.A. 89:10691-10695). The concentrates were resolved by SDS-PAGE and subjected to immunoblot analysis using a rabbit antibody against either FGF1 (Jackson et al., 1992), Syt1 (LaVallee et al.,1998, J. Biol. Chem. 273:22217-22223) or Myc (Oncogene). The heat shock-induced release of FGF1 was performed at 42° C. for 110 minutes as previously described (Jackson et al., 1992). Cell viability was assessed by measuring lactate dehydrogenase activity in the conditioned medium after filtration as disclosed previously elsewhere herein (published as Mandinova et al., 2003, J. Cell Sci. 116:2687-2696), and total cell lysates were obtained and processed for immunoblot analysis as described (Landriscina et al., 2001, J. Biol. Chem. 276:22544-22552).
Stable FGF1R136K NIH 3T3 cell transfectants were pre-incubated with either 100 ng/ml pertussis toxin (PTX) or 10 ng/ml cholera toxin (CT) for 60 minutes at 37° C. in DMEM containing 10% BCS. After pre-incubation, the cells were washed, stimulated with 10 μg/ml of thrombin for different periods of time in the presence of either 100 ng/ml PTX or 10 ng/ml CT, conditioned medium collected, and subjected to immunoblot analysis as described above.
Since FGF1 is known to be susceptible to thrombin cleavage at residue 136 (Erzurum et al., 2003, J. Vasc. Surg. 37:1075-1081), a thrombin-resistant FGF1 mutant (FGF1R136K; described in International Patent Publication No. WO03/052378, which is incorporated by reference in its entirety herein) was used and stable FGF1R136K NIH 3T3 cell transfectants were produced.

[3] = test system: secondary NCSC populations; test: Dosage sensitivity of secondary NCSC to instructive differentiation factors BMP2 and sDl1; type: cell-based; conditions: clones expanded 18 days; 5 μM TRAP, sJ1 or thrombin
Experimental: Secondary NCSC population were generated from founder NCSC clones after 13 days of growth in Morrison media supplemented either with 7.5 nM sJ1 (▴-▴), 5 μg/ml α-thrombin (▾-▾), 5 μM TRAP (♦-♦) or no additive (control; ▪-▪) and compared to freshly isolated populations of NCSC (●-●). […] Clonogenic differentiation assays of secondary P75^+/P0^− NCSC populations were assayed in Morrison media as a function of the concentration of the neurogenic differentiation factor, BMP2, and the generation of Neuron-only clones was assessed 14 days after the addition of BMP2. […] Clonogenic differentiation assays of secondary P75^+/P0^− NCSC were preformed in Morrison media supplemented with increasing concentrations of the gliogenic differentiation factor, sDl1 and the generation of Glial-only clones was assessed 14 days after the addition of sDl1. […]
It is well established that quantitative changes in the dosage sensitivity of NCSC populations occur in vitro and in vivo during NCSC self-renewal (Kubu et al., 2002, Dev. Biol. 244:199-214; White et al., 1999, Development 126:4351-4363; White et al., 2001, Neuron 29:57-71). […] The dosage sensitivity of secondary NCSC populations to both BMP2 and sDl1 was evaluated using the clonogenic differentiation assay to quantitate the production of neuron-only clones (BMP2) and glial-only clones (sDl1) after day 18.

primary NCSC populations = test: Clonogenic differentiation of primary NCSC, dosage sensitivity to Notch ligands; type: cell-based, rat; conditions: two week differentiation assay
Experimental: FIG. 12A depicts an RT-PCR analysis of FGF1.A mRNA expression. Briefly, populations of murine NCSC were treated for 48 hours in Morrison media supplemented with either 7.5 nM sJ1, 5.0 nM sDl1, 10 μg/ml of α-thrombin or 5 μg/ml TRAP, and the steady-state levels of the FGF1.A mRNA were measured using RT-PCR as described elsewhere herein. […] Clonogenic differentiation assays of murine NCSC populations were assessed by maintaining the cells in Morrison media supplemented with increasing concentrations of either sJ1 or sDl1. The results are presented as the number of colonies at day 14 (mean±standard deviation for at least three experiments) originating from three independent cell isolations as function of concentration of sJ1 and sDl1 using two assays of ligand sensitivity: the percentage of glial-only clones (▪-▪; ▴-▴) and the percentage of neuron-containing clones (♦-♦; ▾-▾) produced after 14 days of ligand exposure. Legend: (▴-▴)sJ1/Glial, (▾-▾) sDl1/Glial (♦-♦) sJ1/Neural and (▾-▾) sJDl1/Neural. […] Clonogenic differentiation assays of NCSC populations was assessed by maintaining the cells in Morrison media supplemented with either 7.5 nM sJ1 (▪-▪) or 5 nM sDl1 (▴-▴). The onset of gliogenic differentiation was determined by GFAP immunohistochemistry. Results are presented as the percentage of GFAP-positive clones (mean±standard deviation of three experiments). […]

Substance: Thrombin
- export of the FGF1R136K mutant [1]: unable to induce the export
- export of FGF2 [2]: unable to induce
- concentration giving maximal response of FGF1R136K release ([2]; 37° C.): 10 µg/mL
- export of S100A13 ([2]; 37° C., cells co-expressing S100A13 and FGF1R136K): presence of S100A13 in the extracellular compartment
- release of the FGF1R136K mutant into the extracellular compartment ([2]; 37° C., 10 μg/ml α-thrombin or 5 μM TRAP): rapid and sustained appearance
- time to maximum levels of FGF-1 release after contact ([2]; FGF-1-NIH 3T3 transfectants): one
- release of the FGF1R136K mutant from cells with elevated Notch1 signaling ([2]; cells adenovirally transduced with caN1): unable to initiate the release
- export of p40 Syt1 ([2]; p40 Syt1 adenovirally transduced): presence of p40 Syt1 in the extracellular compartment
- shift in sensitivity to instructive differentiation signals [3]: not observed

Substance: sJ1: Soluble Jagged1, amino acid residues from about 1 to 1067 (SEQ ID NO:3) of full-length Jagged1
- gliogenic differentiation of the NCSC population (primary NCSC populations): capable of inducing gliogenic differentiation
- shift in sensitivity to instructive differentiation signals [3]: not observed

Source: US7501281B2, “Compositions, methods and kits related to thrombin, Notch signaling and stamatogenesis and growth of stem cells” (Maine Medical Center Research Institute, priority 2003, dated 2009)
